Results: US8563565B2, “Pyrazoloquinoline derivatives” (Eisai R&D Management Co., Ltd., priority 2011, dated 2013)
Like-named read-outs stand apart in the source and are kept apart here.

What was measured:
[1] = biological target: T1, human recombinant PDE9 protein (Homo sapiens, UniProt O76083); experiment: PDE9 inhibitory activity test (measurement of PDE9 inhibitory action, [3H]-cGMP); format: biochemical; settings: PDE9 IC50, human recombinant PDE9, 30° C., 10 min
T1 construct: His-tag (inferred from the Ni column purification; a myc His-tag vector is named only for the HEK293 expression check); made in house; host or cells: silkworm (pYNG vector, Katakura Industries)
T1 sequence (O76083 whole entry): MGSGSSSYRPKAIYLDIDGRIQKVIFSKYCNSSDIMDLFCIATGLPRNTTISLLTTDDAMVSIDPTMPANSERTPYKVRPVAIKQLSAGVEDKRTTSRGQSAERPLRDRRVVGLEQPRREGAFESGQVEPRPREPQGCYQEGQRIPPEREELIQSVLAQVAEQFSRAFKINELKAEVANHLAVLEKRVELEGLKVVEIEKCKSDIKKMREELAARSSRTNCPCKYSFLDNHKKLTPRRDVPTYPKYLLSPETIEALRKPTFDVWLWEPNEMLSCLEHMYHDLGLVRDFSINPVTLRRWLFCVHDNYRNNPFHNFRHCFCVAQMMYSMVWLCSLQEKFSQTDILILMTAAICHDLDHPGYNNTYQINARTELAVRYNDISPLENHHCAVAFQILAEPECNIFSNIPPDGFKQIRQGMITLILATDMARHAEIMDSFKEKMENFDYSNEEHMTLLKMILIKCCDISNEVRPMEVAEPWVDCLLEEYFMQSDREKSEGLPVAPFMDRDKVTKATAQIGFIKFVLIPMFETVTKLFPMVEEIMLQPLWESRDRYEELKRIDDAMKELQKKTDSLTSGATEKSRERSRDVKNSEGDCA
From the text: 1) Preparation of a Human Recombinant PDE9 Protein
An hsPDE9A 1cDNA fragment was amplified by being based on a base sequence (Accession No.: AF048837) of the hsPDE9A1 registered on GenBank data base, and by using the following sequences (Hokkaido System Science Co., Ltd.) as a primer and Human hippocampus cDNA library (Clontech Laboratories, Inc.) as a template DNA, and using Pfu50 DNA polymerase (Invitrogen Corp.), and by a polymerase chain reaction (PCR) of the following condition.
The condition of PCR: [96° C., 5 min]×1 cycle, [(96° C., 10 sec), (57° C., 5 sec), (72° C., 2 min)]×30 cycles
The obtained hsPDE9A 1 cDNA fragment was incorporated in a TOPO-TA cloning vector (Invitrogen Corp.), and the base sequence was checked; and thereafter, the resultant was transfected in a pcDNA 3.1/myc His-tag vector (Invitrogen Corp.) to thereby make a human PDE9 expression vector for mammal cells. The human PDE9 expression vector for mammal cells was transfected with transient expression to an HEK293 cell by using a LIPOFETAMINE 2000 Reagent (Gibco). It was confirmed by Western blot method that the PDE9A expressed in the HEK293 cell, and then, the human PDE9A 1cDNA fragment was transfected in a pYNG vector (Katakura Industries Co., Ltd.) to thereby make an expression vector for insect cells. A supernatant of homogenized silk worm in which a large amount of PDE9 was expressed was purified by an equilibrated Ni column using a buffer A (20 mmol/L Tris-HCl, pH: 8.0, 1 mmol/L DTT, 10 mmol/L imidazole). After 1 hour of mixing of the supernatant and the Ni column, cleaning was carried out using a buffer B (20 mmol/L Tris-HCl, pH: 8.0, 1 mmol/L […]), and elution was carried out using a buffer C (20 mmol/L Tris-HCl, pH: 8.0, 1 mmol/L DTT, 100 mmol/L imidazole). An elution fraction was preparatively collected to thereby obtain a PDE9 enzyme solution.
2) Measurement of PDE9 Inhibitory Action
To 100 μL of a buffer D (40 mmol/L Tris-HCl, pH: 7.4, 10 mmol/L MgCl2, 1 mM DTT, 2 μM cGMP) solution containing [^3H]-cGMP ([…]/mL), 10 μL of a compound solution for evaluation (a solution in which a compound was dissolved in DMSO and diluted so that the DMSO concentration became 5%) and 90 μL of a solution prepared by diluting the PDE9 enzyme solution prepared in the above with a buffer E (40 mmol/L Tris-HCl, pH: 7.4, 10 mmol/L MgCl2, 1 mM DTT, 1 mmol/L EGTA) were added under ice cooling. The resultant mixed solution was incubated at 30° C. for 10 min, and thereafter heated for 2 min in boiled water to stop the enzyme reaction of the PDE9. Then, the resultant was returned to room temperature; 50 μL of 5′-Nucleotidase (Biomol GmbH, 10 units/mL) was added thereto; and the resultant was incubated at 30° C. for 10 min to thereby convert [^3H]-5′-GMP formed in the previous reaction to [^3H]-guanosine. 500 μL of an anion exchange resin (Bio-Rad AG1-X2 resin, mesh size: 200-400, H2O:resin=2:1) was added to the resultant reaction liquid, and allowed to stand for 10 min, and thereafter centrifuged (2,000 rpm, 10 min); and a supernatant in which the [^3H]-guanosine was present was transferred to a LumaPlate (PerkinElmer, Inc.), and the radioactivity was measured by a TopCount NXT microplate scintillation and luminescence counter (PerkinElmer, Inc.).
The inhibition percentage of the evaluation compound was calculated using the following expression, taking the radioactivity of a control containing no evaluation compound to be (A), the radioactivity of a blank containing no enzyme to be (B), and the radioactivity of the evaluation compound to be (C). Inhibition percentage=100−{[(C)−(B)]/[(A)−(B)]}×100(%)
The IC50 value for PDE9 of the evaluation compound was determined from inhibition percentage for various concentrations.

[2] = test system: cGMP in the cerebrospinal fluid; experiment: Effect on rodent cerebrospinal fluid cGMP (rat); format: in vivo; settings: po, read-out: % CSF cGMP increase from vehicle control
Description: 3) Effect on Rodent Cerebrospinal Fluid cGMP
The test compound was administered to ICR male mice (Charles River Laboratories Japan, Inc.), Sprague-Dawley male rats (SD) (Charles River Laboratories Japan, Inc.) or Long-Evans male rats (LE) (Institute for Animal Reproduction), and the cerebrospinal fluid was then collected under pentobarbital anesthesia and stored at −20° C. cGMP in the cerebrospinal fluid was measured in accordance with the acetylation EIA procedure of cGMP EIA kit (GE Healthcare) or the non-acetylation procedure of cGMP EIA kit (Cayman) The result was an increase (C) in the amount of cGMP of the test compound-administered group (B) relative to the amount of cGMP of the vehicle-administered group (A), and was calculated using the following formula cGMP increase(C)=[(B)−(A)]/(A)×100(%)

[3] = test system: cGMP in the hippocampus; experiment: Effect on rodent hippocampal cGMP; format: in vivo, rat; settings: Rattus norvegicus, po, 1 h, read-out: % hippocampal cGMP increase from vehicle control
Description: 4) Effect on Rodent Hippocampal cGMP
The test compound was administered to Sprague-Dawley male rats (Charles River Laboratories Japan, Inc.) or Long-Evans male rats (Institute for Animal Reproduction) and then the animals were sacrificed with microwave under pentobarbital anesthesia, and the hippocampus was extracted. After measuring the wet weight, the hippocampus was frozen with liquid nitrogen and stored at −80° C. In the measurement of cGMP in the hippocampus, a 0.5 M perchloric acid/1 mM EDTA solution was added at 5% (w/v) based on the wet weight, and the mixture was homogenized. After the homogenization, the homogenate was centrifuged (10000 rpm, 15 min), and the supernatant was collected. The collected supernatant was neutralized with a 2 M potassium bicarbonate solution and centrifuged (13000 rpm, 10 min). The cGMP concentration in the supernatant was measured in accordance with the non-acetylation EIA procedure of cGMP EIA kit (GE Healthcare). The result was an increase (C) in the amount of cGMP of the test compound-administered group (B) relative to the amount of cGMP of the vehicle-administered group (A), and was calculated using the following formula. cGMP increase(C)=[(B)−(A)]/(A)×100(%)

IC50 [1]	Structure (SMILES)	further results
6.86 nM	COc1nccc(C)c1-c1ccc2c(c1)[nH]c(=O)c1cnn(C3CCOCC3)c12 [Example 6, 7-(2-methoxy-4-methylpyridin-3-yl)-1-(tetrahydro-2H-pyran-4-yl)-1H-pyrazolo[4,3-c]quinolin-4(5H)-one]	change in vivo at 10 mg/kg ([2]; Rattus norvegicus, 1 h): 120%
4.87 nM	Cc1cc(OC(C)C)nc(C)c1-c1ccc2c(c1)[nH]c(=O)c1cnn([C@H]3CCOC3)c12 [Example 51, (S)-7-(6-isopropyloxy-2,4-dimethylpyridin-3-yl)-1-(tetrahydrofuran-3-yl)-1H-pyrazolo[4,3-c]quinolin-4(5H)-one]	change in vivo at 10 mg/kg ([2]; Rattus norvegicus, 1 h): 189%; change in vivo at 10 mg/kg [3]: 17%
11.1 nM	CCOc1cc(C)c(-c2ccc3c(c2)[nH]c(=O)c2cnn([C@H]4CCOC4)c23)c(C)n1 [Example 62, (S)-7-(6-ethoxy-2,4-dimethylpyridin-3-yl)-1-(tetrahydrofuran-3-yl)-1H-pyrazolo[4,3-c]quinolin-4(5H)-one]	change in vivo at 3 mg/kg ([2]; Rattus norvegicus, 1 h): 155%
8.71 nM	COc1nc(C)cc(C)c1-c1cc2[nH]c(=O)c3cnn([C@H]4CCOC4)c3c2cc1F [Example 54, (S)-8-fluoro-7-(2-methoxy-4,6-dimethylpyridin-3-yl)-1-(tetrahydrofuran-3-yl)-1H-pyrazolo[4,3-c]quinolin-4(5H)-one]	change in vivo at 10 mg/kg ([2]; Rattus norvegicus, 1 h): 282%; change in vivo at 10 mg/kg [3]: 23%
12.2 nM	COc1nccc(C)c1-c1ccc2c(c1)[nH]c(=O)c1cnn(C3CCOC3)c12 (single isomer, unassigned) [32 (−)]	change in vivo at 10 mg/kg ([2]; rat(SD), 10 mg/kg p.o., sampling time 1 hr): 72%
9.3 nM	Cc1cc(OC(F)F)nc(C)c1-c1ccc2c(c1)[nH]c(=O)c1cnn(C3CCOCC3)c12 [Example 18]	change in vivo at 3 mg/kg ([2]; Rattus norvegicus, 1 h): 123%
8.36 nM	COc1nc(C)cc(C)c1-c1ccc2c(c1)[nH]c(=O)c1cnn(C3CCOC3)c12 (single isomer, unassigned; (-)) [28 (−), (−)-7-(2-methoxy-4,6-dimethylpyridin-3-yl)-1-(tetrahydrofuran-3-yl)-1H-pyrazolo[4,3-c]quinolin-4(5H)-one]	change in vivo at 3 mg/kg ([2]; Rattus norvegicus, 1 h): 257%
53.9 nM	Cc1cc(C)c(-c2ccc3c(c2)[nH]c(=O)c2cnn(C4CCOCC4)c23)c(C(F)F)n1 [Example 21]	
5.67 nM	COc1nccc(C)c1-c1ccc2c(c1)[nH]c(=O)c1cnn(C3COCCOC3)c12 [Example 47]	
12.4 nM	COc1cc(C)c(-c2ccc3c(c2)[nH]c(=O)c2cnn(C4CCCOC4)c23)c(CF)n1 (single isomer, unassigned) [38 (−)]	
8.1 nM	COc1ncc(C)c(-c2ccc3c(c2)[nH]c(=O)c2cnn(C4CCCOC4)c23)c1C (single isomer, unassigned) [36 (−)]	
20.1 nM	COc1nc(CF)cc(C)c1-c1ccc2c(c1)[nH]c(=O)c1cnn(C3CCOC3)c12 (single isomer, unassigned) [31 (+)]	
3.21 nM	Cc1cc(C2CCOCC2)cc(C)c1-c1ccc2c(c1)[nH]c(=O)c1cnn(C3CCOCC3)c12 [Example 40, 7-[2,6-dimethyl-4-(tetrahydro-2H-pyran-4-yl)phenyl]-1-(tetrahydro-2H-pyran-4-yl)-1H-pyrazolo[4,3-c]quinolin-4(5H)-one]	
43.9 nM	COc1ncc(C)c(-c2cc3[nH]c(=O)c4cnn([C@@H]5CCOC5)c4c3cc2F)c1C [Example 57, (R)-8-fluoro-7-(2-methoxy-3,5-dimethylpyridin-4-yl)-1-(tetrahydrofuran-3-yl)-1H-pyrazolo[4,3-c]quinolin-4(5H)-one]	
19.7 nM	COc1ncc(F)c(C)c1-c1ccc2c(c1)[nH]c(=O)c1cnn(C3CCOCC3)c12 [Example 12]	change in vivo at 3 mg/kg ([2]; Rattus norvegicus, 1 h): 91%
18.7 nM	COc1cc(C)c(-c2ccc3c(c2)[nH]c(=O)c2cnn(C4CCOCC4)c23)c(CF)n1 [Example 24]	change in vivo at 10 mg/kg ([2]; Rattus norvegicus, 1 h): 149%
6.51 nM	CCOc1ncc(C)c(-c2ccc3c(c2)[nH]c(=O)c2cnn([C@H]4CCOC4)c23)c1C [Example 50]	
12.2 nM	Cc1cnc(OC(F)F)c(C)c1-c1ccc2c(c1)[nH]c(=O)c1cnn([C@H]3CCOC3)c12 [Example 49]	
7.42 nM	COc1nc(CF)cc(C)c1-c1ccc2c(c1)[nH]c(=O)c1cnn(C3CCOC3)c12 (single isomer, unassigned) [31 (−)]	
	COc1ncc(C)c(-c2ccc3c(c2)[nH]c(=O)c2cnn([C@H]4CCOC4)c23)c1C [26 S]	change in vivo at 10 mg/kg ([2]; Rattus norvegicus, 1 h): 274%; change in vivo at 10 mg/kg [3]: 58%
137 nM	COc1cc(C)c(-c2ccc3c(c2)[nH]c(=O)c2cnn(C4CCOC4)c23)c(C)n1 (single isomer, unassigned) [29 (+)]	
9.2 nM	COCc1cc(C)c(-c2ccc3c(c2)[nH]c(=O)c2cnn(C4CCOCC4)c23)c(C)c1 [Example 7]	
3.33 nM	COc1nc(C)cc(C)c1-c1ccc2c(c1)[nH]c(=O)c1cnn(C3COCCOC3)c12 [Example 45, 1-(1,4-dioxepan-6-yl)-7-(2-methoxy-4,6-dimethylpyridin-3-yl)-1H-pyrazolo[4,3-c]quinolin-4(5H)-one]	
77.5 nM	COc1ncc(C)c(-c2ccc3c(c2)[nH]c(=O)c2cnn([C@@H]4COC[C@H]4OC)c23)c1C (racemic) [Example 61, 7-(2-methoxy-3,5-dimethylpyridin-4-yl)-1-[(3RS,4SR)-4-methoxytetrahydrofuran-3-yl]-1H-pyrazolo[4,3-c]quinolin-4(5H)-one]	
6.32 nM	Cc1cc(C(F)F)nc(C)c1-c1ccc2c(c1)[nH]c(=O)c1cnn(C3CCOCC3)c12 [Example 16]	
22 nM	COc1cc(C)c(-c2ccc3c(c2)[nH]c(=O)c2cnn(C4CCCOCC4)c23)c(C)c1 (single isomer, unassigned) [42 (−)]	
